This note sets out measurements from patent publication US7452887B2, “Quinoline- and isoquinoline-based compounds exhibiting ATP-utilizing enzyme inhibitory activity, and compositions, and uses thereof” (Amphora Discovery Corporation, priority 2004, dated 2008).

What all share (experiment): HTS ATP-utilizing enzyme assay, off-chip mobility-shift (Caliper HTS 250)
Holding throughout (conditions): test compound 10 μM, kinase listed = active (greater than six-sigma from the mean activity of inactive compounds)

The target in one test is GSK3-α (Homo sapiens, UniProt P49840). Type of test: biochemical. An outline of the steps:
(§1)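 Single-point screen, 10 μM compound; kinase + peptide substrate, HEPES pH 7.5/Triton X-100/BSA; 2.5 hrs, 20–22° C.; EDTA stop. Readout: substrate vs phosphoproduct ratio by off-chip mobility shift. Hits called at six-sigma limits.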

A further test deals with AKT3 (Homo sapiens, UniProt Q9Y243). Type of test: biochemical. A digest of the protocol: as §1
For another test, the target named is CDK5 (Homo sapiens, UniProt Q00535). The test is classed as biochemical. An outline of the steps:
as §1

The target of a further test is PKA (Homo sapiens, UniProt P17612). The test is classed as biochemical. A digest of the protocol: as §1
The target in another test is ROCK2 (Homo sapiens, UniProt O75116). The test is classed as biochemical. A digest of the protocol:
as §1

For another test, the system named is CK2. Type of test: biochemical, human. The source says:
The following procedures describe the reagent and plate preparation for a HTS of an ATP-utilizing enzyme, such as a protein kinase, run in an off-chip mobility-shift assay format. The following provides an HTS protocol for running a protein kinase HTS screen on a Caliper HTS 250 microfluidics system. The following parameters are dependent on the protein kinase used and can be determined by one skilled in the art as part of a typical assay development process. For example, the peptide substrate used can be identified from the current literature, by screening a peptide library of potential protein kinase substrates, or by other applicable means accepted in the field.
The following table provides typical screen assay parameters appropriate for a Caliper HTS 250 microfluidics system.
The reagents and buffers listed in the following table are generally applicable for developing and running an HTS screen on a human protein kinase using the Caliper HTS 250 system.
The following reagents were prepared using the previously described buffers.
A 2× Master Buffer solution was prepared by combining 200 mL of 1 M HEPES, pH 7.5, 2 mL of 10% Triton X-100, 20 mL of 10% BSA, and 778 mL of H2O.
A 2.5× Substrate Buffer solution was prepared by combining 177.408 mL of 2× Master Buffer, 0.887 mL of 1 mM peptide-X, and 176.521 mL of H2O.
A 1.55× Termination Buffer solution was prepared by combining 762.05 mL of 2× Master Buffer, 95.1 mL of 0.5 M EDTA, and 666.94 mL of H2O. […]
Assays to determine the kinase inhibitory activity of compounds of the present disclosure were performed using a Caliper HTS 250 microfluidics device, Greiner U-bottom assay plates, a Multidrop for transfer of reagents, and Biomek FX (AMNCBM03) software. […] The inhibition of the ATP-utilizing enzyme, such as a particular protein kinase, was determined by measuring the ratio of the peptide substrate to phosphorylated product for each well of the assay plate using the Caliper HTS 250 system. […]

A further test addresses T1, CHEK1 (Homo sapiens, UniProt O14757).
T1 sequence (O14757 1-476): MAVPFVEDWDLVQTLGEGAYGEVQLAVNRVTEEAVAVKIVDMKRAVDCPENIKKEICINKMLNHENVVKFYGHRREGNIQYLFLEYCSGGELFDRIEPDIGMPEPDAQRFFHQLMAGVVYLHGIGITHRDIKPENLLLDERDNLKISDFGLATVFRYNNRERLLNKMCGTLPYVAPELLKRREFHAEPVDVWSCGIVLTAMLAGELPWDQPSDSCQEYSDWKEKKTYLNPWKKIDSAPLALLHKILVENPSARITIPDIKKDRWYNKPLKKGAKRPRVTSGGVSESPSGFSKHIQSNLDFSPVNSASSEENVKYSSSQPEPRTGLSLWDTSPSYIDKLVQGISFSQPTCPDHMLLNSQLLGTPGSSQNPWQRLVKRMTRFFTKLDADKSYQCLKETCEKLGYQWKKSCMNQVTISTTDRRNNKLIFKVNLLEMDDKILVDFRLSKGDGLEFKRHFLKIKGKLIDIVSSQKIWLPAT
Type of test: biochemical. An outline of the steps: as §1

A further test addresses LYNA (Homo sapiens, UniProt P07948). Type of test: biochemical. A digest of the protocol: as §1
The next test concerns the target PDGFR-α (Homo sapiens, UniProt P16234). The test is classed as biochemical. A digest of the protocol:
as §1

The target in the next test is ABL1 (Homo sapiens, UniProt P00519). Type of test: biochemical. A digest of the protocol: as §1
Another test concerns the target CDK1/cyclin B (Homo sapiens, UniProt P06493). The test is classed as biochemical. An outline of the steps:
as §1

In another test the target is CHEK2 (Homo sapiens, UniProt O96017). The test is classed as biochemical. An outline of the steps:
as §1

The target in the next test is LCK (Homo sapiens, UniProt P06239). The test is classed as biochemical. An outline of the steps:
as §1

In the next test the target is SRC (Homo sapiens, UniProt P12931). Type of test: biochemical. An outline of the steps: as §1
A further test deals with SYK (Homo sapiens, UniProt P43405). Type of test: biochemical. A digest of the protocol:
as §1

Chain of LYNA (P07948 whole entry): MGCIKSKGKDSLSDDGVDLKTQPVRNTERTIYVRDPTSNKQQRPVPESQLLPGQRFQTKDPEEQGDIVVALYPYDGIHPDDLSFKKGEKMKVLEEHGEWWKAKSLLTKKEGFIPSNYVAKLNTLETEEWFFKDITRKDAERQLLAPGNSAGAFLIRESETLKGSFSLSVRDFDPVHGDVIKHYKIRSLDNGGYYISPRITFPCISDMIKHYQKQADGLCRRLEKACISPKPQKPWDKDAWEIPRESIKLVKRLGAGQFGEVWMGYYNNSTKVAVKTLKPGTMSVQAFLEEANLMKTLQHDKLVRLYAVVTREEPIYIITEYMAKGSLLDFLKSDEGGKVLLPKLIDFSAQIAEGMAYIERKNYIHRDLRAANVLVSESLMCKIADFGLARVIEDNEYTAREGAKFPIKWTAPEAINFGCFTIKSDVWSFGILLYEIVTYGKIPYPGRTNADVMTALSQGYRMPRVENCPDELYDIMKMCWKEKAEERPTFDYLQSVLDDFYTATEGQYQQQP
Chain of CHEK2 (O96017 whole entry): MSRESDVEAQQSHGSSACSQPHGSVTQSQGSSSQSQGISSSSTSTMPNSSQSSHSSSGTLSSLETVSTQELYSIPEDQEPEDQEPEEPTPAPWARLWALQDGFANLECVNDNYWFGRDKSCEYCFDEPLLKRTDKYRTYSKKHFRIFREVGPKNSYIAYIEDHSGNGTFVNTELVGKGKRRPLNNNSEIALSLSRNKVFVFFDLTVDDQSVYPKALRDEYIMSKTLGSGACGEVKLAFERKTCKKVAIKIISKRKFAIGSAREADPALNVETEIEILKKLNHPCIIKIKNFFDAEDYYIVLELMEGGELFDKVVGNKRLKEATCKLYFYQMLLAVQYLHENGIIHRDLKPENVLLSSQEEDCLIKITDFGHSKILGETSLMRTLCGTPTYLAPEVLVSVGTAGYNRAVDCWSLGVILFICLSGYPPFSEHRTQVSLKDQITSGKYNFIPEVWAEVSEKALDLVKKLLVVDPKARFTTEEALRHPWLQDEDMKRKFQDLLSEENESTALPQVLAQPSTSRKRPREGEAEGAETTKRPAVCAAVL
Chain of AKT3 (Q9Y243 whole entry): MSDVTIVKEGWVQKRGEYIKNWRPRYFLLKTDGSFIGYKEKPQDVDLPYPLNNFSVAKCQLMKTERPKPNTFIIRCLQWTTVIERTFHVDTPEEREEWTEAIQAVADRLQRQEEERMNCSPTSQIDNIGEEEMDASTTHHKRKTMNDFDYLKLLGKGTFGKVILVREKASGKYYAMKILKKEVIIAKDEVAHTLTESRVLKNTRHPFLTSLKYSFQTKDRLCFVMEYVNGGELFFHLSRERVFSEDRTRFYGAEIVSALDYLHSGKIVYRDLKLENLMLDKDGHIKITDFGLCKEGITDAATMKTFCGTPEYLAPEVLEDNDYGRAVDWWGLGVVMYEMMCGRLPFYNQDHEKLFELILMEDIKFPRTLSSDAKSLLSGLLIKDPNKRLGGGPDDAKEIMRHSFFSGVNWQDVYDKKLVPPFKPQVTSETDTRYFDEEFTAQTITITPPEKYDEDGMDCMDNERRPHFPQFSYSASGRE
Chain of ROCK2 (O75116 whole entry): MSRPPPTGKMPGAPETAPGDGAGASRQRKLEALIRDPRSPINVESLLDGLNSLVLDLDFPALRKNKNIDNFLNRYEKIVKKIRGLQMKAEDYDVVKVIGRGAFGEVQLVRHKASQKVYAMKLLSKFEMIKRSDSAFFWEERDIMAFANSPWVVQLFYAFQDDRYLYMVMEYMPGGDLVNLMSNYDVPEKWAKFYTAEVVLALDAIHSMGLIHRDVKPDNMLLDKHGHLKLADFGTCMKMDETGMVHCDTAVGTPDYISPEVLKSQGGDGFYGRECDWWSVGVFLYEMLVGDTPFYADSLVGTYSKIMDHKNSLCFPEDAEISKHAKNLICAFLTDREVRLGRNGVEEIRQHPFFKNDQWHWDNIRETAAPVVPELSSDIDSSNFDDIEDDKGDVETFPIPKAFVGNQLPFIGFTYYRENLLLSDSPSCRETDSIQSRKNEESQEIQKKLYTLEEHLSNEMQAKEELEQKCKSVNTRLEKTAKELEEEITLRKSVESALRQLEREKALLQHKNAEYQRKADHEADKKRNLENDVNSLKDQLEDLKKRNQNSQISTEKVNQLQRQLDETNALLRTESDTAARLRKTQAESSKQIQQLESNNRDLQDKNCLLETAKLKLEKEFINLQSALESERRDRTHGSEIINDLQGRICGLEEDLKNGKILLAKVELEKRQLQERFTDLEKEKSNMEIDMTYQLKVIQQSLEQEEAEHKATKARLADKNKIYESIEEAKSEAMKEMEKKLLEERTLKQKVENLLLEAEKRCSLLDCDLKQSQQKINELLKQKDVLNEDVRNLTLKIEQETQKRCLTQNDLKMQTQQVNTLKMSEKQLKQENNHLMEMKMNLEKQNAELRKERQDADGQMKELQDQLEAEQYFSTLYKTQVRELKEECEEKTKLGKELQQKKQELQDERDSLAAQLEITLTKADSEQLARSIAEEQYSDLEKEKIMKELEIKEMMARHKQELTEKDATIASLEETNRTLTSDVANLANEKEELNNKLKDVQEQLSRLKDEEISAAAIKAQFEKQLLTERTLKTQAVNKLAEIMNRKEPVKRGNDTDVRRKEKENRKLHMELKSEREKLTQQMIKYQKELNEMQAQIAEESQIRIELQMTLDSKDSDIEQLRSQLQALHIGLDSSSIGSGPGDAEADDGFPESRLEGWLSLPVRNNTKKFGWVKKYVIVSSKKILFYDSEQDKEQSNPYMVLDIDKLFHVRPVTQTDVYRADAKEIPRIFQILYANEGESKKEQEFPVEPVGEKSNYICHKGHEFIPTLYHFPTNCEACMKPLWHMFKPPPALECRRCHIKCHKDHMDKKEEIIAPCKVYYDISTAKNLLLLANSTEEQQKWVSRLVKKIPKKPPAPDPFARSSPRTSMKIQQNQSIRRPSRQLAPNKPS
Chain of GSK3-α (P49840 whole entry): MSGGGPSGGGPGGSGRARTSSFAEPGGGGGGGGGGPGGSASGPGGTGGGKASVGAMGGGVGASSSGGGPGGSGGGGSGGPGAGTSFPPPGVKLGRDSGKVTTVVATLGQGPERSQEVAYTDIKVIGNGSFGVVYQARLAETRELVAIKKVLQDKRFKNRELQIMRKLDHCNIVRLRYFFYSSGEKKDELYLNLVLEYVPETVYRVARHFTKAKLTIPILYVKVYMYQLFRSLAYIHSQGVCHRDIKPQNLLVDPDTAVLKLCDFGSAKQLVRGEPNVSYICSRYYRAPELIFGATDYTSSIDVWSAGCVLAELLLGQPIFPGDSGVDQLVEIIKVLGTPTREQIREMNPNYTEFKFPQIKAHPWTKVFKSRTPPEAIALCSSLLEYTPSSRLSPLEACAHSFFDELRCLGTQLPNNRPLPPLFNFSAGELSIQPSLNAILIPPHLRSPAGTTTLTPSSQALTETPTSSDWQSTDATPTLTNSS
Chain of CDK1/cyclin B (P06493 whole entry): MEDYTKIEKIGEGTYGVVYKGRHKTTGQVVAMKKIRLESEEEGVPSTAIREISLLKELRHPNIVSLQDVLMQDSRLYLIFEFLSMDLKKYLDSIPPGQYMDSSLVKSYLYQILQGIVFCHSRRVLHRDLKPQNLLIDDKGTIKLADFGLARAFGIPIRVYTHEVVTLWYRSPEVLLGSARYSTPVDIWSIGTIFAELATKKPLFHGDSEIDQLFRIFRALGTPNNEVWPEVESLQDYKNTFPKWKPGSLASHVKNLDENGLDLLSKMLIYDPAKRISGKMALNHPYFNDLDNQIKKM
Chain of CDK1/cyclin B (P14635 whole entry partner): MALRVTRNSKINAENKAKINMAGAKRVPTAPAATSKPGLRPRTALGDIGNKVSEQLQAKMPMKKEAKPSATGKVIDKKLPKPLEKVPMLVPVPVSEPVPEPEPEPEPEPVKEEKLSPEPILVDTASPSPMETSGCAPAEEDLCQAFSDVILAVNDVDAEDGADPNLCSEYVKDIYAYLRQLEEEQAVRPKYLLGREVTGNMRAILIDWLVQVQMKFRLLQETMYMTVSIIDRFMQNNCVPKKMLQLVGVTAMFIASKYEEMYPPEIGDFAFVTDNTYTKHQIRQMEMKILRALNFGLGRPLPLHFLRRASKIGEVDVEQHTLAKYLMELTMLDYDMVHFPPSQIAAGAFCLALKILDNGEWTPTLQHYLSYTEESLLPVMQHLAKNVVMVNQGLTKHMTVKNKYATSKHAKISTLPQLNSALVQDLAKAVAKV
Chain of LCK (P06239 whole entry): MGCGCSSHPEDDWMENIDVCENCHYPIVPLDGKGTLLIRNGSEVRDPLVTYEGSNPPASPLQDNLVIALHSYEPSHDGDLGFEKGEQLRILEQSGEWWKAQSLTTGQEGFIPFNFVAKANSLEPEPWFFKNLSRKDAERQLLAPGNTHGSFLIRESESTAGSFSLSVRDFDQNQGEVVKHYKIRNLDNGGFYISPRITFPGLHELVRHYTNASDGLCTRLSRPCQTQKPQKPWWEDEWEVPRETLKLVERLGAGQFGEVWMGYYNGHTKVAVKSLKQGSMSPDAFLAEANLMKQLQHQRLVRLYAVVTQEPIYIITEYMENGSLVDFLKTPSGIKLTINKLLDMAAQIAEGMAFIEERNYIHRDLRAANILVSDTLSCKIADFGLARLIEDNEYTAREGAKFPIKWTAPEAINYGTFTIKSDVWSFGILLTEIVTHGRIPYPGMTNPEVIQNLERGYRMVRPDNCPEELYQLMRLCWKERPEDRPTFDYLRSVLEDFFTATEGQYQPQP

On to `CN1CCN(c2ccc(Nc3ccnc4ccc(-c5ccc(F)cc5)cc34)cc2)CC1` [6-(4-fluorophenyl)-N-(4-(4-methylpiperazin-1-yl)phenyl)quinolin-4-amine], for which the Activity result at GSK3-α is “GSK3-α”.

On to `CN1CCN(c2ccc(Nc3ccnc4ccc(-c5ccncc5)cc34)cc2)CC1` [N-(4-(4-methylpiperazin-1-yl)phenyl)-6-(pyridin-4-yl)quinolin-4-amine], for which the Activity entry at AKT3 is “AKT3”; at CDK5 it was “CDK5”; on GSK3-α, “GSK-3-α”; at PKA it was “PKA”; on ROCK2, “ROCK2”; in the test on CK2, “CK2”.

`c1ccc(-c2ccc3nccc(Nc4ccc(N5CCNCC5)cc4)c3c2)cc1` [6-phenyl-N-(4-(piperazin-1-yl)phenyl)quinolin-4-amine]: the results for the Activity result on CHEK1, at LYNA and at PDGFR-α were “CHEK1”, “LYNA” and “PDGFR-α”, respectively.

On to `CN1CCN(c2ccc(Nc3ccnc4ccc(-c5ccc(O)cc5)cc34)cc2)CC1` [4-(4-(4-(4-methylpiperazin-1-yl)phenylamino)quinolin-6-yl)phenol], for which the Activity result at ROCK2 is given as “ROCK2”.

For the compound `CN1CCN(c2ccc(Nc3ccnc4ccc(-c5cccc6ccccc56)cc34)cc2)CC1` [N-(4-(4-methylpiperazin-1-yl)phenyl)-6-(naphthalen-1-yl)quinolin-4-amine], the Activity entry is “ABL1” on ABL1; “AKT3” at AKT3; “CDK1/cyclin B” at CDK1/cyclin B; “CHEK2” at CHEK2; “LCK” on LCK; “LYNA” on LYNA. For the same compound, the Activity entry at SRC was “SRC”; at SYK, “SYK”.

Consider `COc1ccc(-c2ccc3nccc(N(C)c4ccc(N5CCN(C)CC5)cc4)c3c2)cc1` [6-(4-methoxyphenyl)-N-methyl-N-(4-(4-methylpiperazin-1-yl)phenyl)quinolin-4-amine], for which the Activity result at PDGFR-α was “PDGFR-α”.

With `COc1ccc(-c2ccc3nccc(Nc4ccc(N5CCNCC5)cc4)c3c2)cc1` [6-(4-methoxyphenyl)-N-(4-(piperazin-1-yl)phenyl)quinolin-4-amine], the Activity entry on CDK1/cyclin B was “CDK1/cyclin B”; at CHEK1, “CHEK1”.

Take `CN1CCN(c2ccc(Nc3ccnc4ccc(-c5ccc6ccccc6c5)cc34)cc2)CC1` [N-(4-(4-methylpiperazin-1-yl)phenyl)-6-(naphthalen-2-yl)quinolin-4-amine]: the results for the Activity entry at CHEK1, at CHEK2 and at SYK were “CHEK1”, “CHEK2” and “SYK”, respectively.
